Like-named read-outs stand apart in the source and are kept apart here.
What was measured:
human IRAK4 = human IRAK4 (Homo sapiens (Human), UniProt Q9NWZ3); assay: 33P-labeled kinase activity assay (Reaction Biology Corp), in vitro enzymatic activity; type: biochemical; details: 20 μM ATP, 3 nM kinase, MBP substrate
Experimental: The inhibitory activity of the test compounds against human IRAK4 was evaluated by measuring IC50 values in a ^33P-labeled kinase activity assay (Reaction Biology Corp). Buffer conditions: 20 mM Hepes (pH 7.5), 10 mM MgCl2, 1 mM EGTA, 0.02% Brij35, 0.02 mg/mL BSA, 0.1 mM Na3VO4, 2 mM DTT, 1% DMSO. Procedures: The test compound was dissolved in DMSO at room temperature to prepare a 10 mM solution for later use. The substrate was dissolved in fresh buffer, to which the kinase was added and mixed well. The DMSO solution containing the test compound was added to the above mixed reaction system by an acoustic technique (Echo 550). The concentrations of the compounds in reaction system were 10 μM, 3.33 μM, 1.11 μM, 0.370 μM, 0.123 μM, 41.2 nM, 13.7 nM, 4.57 nM, 1.52 nM, and 0.508 nM. After 15 minutes of incubation, the reaction was started by adding ^33P-ATP (activity: 0.01 μCi/μL; the corresponding concentration is listed in Table 1). Supplier's catalog number, lot number and concentration information in the reaction system for IRAK4 and its substrate are listed in Table 1. After 120 minutes of reaction at room temperature, the resulting solution was loaded on P81 ion exchange chromatography paper sheet (Whatman #3698-915). After repeated washing with 0.75% phosphoric acid solution, the radioactivity of the phosphorylated substrate residue on the paper sheet was measured. The kinase activity data are shown as a comparison of the kinase activity of the test compound and the kinase activity of the blank (DMSO only) and a curve was fitted using Prism4 software (GraphPad) to give IC50 values, with the experimental results shown in Table 2. [table]

THP-1 cells = assay: TNF-α ELISA assay in LPS-stimulated THP-1 cells; type: cell-based, human; details: TNF-α in supernatant, 150 ng/mL LPS
Experimental: TNF-α ELISA Assay in THP-1 Cells THP-1 human acute unicellular leukemia cells were purchased from ATCC (Cat #TIB-202) and incubated in a 37° C., 5% CO2 incubator. The medium was RPMI1640 (Gibco, Cat #22400-105), the supplementary was 10% FBS (Gibco, Cat #10091148); 1% PenStrep (Gibco, Cat #15140); 0.05 mM 2-mercaptoethanol (Sigma, Cat #M6250). TNF-α content in the culture supernatant was measured by a TNF-α Elisa kit. TNF-α was produced by stimulation of THP-1 cells with 150 ng/mL LPS (Sigma, Cat #L6529). Normal THP-1 cells in logarithmic phase were inoculated in 96-well plates (Corning #3599) at a certain concentration (1×10^5/100 μL) and then incubated in an incubator. After two hours, 16.7 μL of test compound of different concentrations (8×final concentration) was added and the mixture was incubated. After one hour, 16.7 μL of 1200 ng/mL LPS was added and the mixture was incubated. After 18 hours, the culture was centrifuged and the supernatant was collected. The TNF-α content was measured by a TNF-α Elisa kit. Finally, the OD signals (OD450-OD570) were read on an envision plate reader. The OD450-OD570 signals were converted to percent inhibition. Inhibition %=(ZPE−sample)/(ZPE−HPE)×100. “HPE” represents the OD450-OD570 signal value of the control without LPS-stimulated cells, and “ZPE” represents the OD450-OD570 signal value of the control with LPS-stimulated cells. IC50 values for compounds were calculated by XLFit in the Excel. Y=Bottom+(Top−Bottom)/(1+(IC50/X)^HillSlope). Equation: […]

[1] = Pharmacokinetic study of oral and intravenous test compounds in SD rats; type: in vivo; details: rat, plasma, SD male rats; for AUC(0-t): read-out: Area under plasma concentration-time curve AUC0-last
Experimental: Pharmacokinetic Study of Oral and Intravenous Test Compounds in SD Rats The test compound was mixed with a solution containing 10% of methyl pyrrolidone, 10% of polyethylene glycol stearate and 80% of water. The mixture was vortexed and sonicated to prepare a 1.5 mg/mL clarified solution, which was then filtered through a microporous membrane for later use. SD male rats aged 7 to 10 weeks were selected and administered intravenously with a dose of the candidate compound at 3 mg/kg. The test compound was mixed with 0.5% aqueous methylcellulose solution. The mixture was vortexed and sonicated to prepare a 2 mg/mL suspension for later use. SD male rats aged 7 to 10 weeks were selected and orally administered with a dose of the candidate compound at 10 mg/kg. Whole blood was collected at certain time points, and plasma was separated. The drug concentration was measured by LC-MS/MS, and pharmacokinetic parameters were calculated using Phoenix WinNonlin software (Pharsight, USA).

human IRAK4, sequence (Q9NWZ3 whole entry): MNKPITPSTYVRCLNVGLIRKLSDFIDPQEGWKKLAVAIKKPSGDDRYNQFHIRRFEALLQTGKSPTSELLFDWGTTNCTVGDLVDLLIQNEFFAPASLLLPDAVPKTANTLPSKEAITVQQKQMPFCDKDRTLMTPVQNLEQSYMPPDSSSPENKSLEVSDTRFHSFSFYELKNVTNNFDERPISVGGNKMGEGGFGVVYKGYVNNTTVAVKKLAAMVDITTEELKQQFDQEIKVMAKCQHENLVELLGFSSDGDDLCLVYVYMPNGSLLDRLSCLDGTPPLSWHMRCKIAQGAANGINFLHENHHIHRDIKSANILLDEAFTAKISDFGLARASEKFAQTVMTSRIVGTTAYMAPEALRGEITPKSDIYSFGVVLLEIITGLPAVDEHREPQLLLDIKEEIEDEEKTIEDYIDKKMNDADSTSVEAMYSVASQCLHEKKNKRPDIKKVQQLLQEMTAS

| SMILES | IC50 (human IRAK4) [nM] | IC50 (THP-1 cells; Homo sapiens, THP-1, 18 h) [nM] | further results |
| --- | --- | --- | --- |
| Cc1nsc2nc(Nc3cnn(C4CCOCC4)c3)nc(O[C@H]3CC[C@H](N4CCOCC4)CC3)c12 [WX002] | 89.5 |  |  |
| Cn1cc(Nc2nc(N[C@H]3CC[C@H](N4CCOCC4)CC3)c3c(C4CCOCC4)nsc3n2)cn1 [WX005] | 8.7 |  |  |
| Cc1nsc2nc(Nc3cnn([C@H]4CCOC4)c3)nc(N[C@H]3CC[C@H](N4CCOCC4)CC3)c12 [WX006] | 9.9 | 486 |  |
| Cc1nsc2nc(Nc3cnn(C4CCOC4)c3)nc(N[C@H]3CC[C@H](N4CCOCC4)CC3)c12 (stereo partly shown) [WX008] | 27.2 |  | IC50 (THP-1 cells; 18 hours): 279 nM |
| Cc1nsc2nc(Nc3cnn(CCO)c3)nc(N[C@H]3CC[C@H](N4CCOCC4)CC3)c12 [WX010] | 45.9 |  |  |
| Cc1nsc2nc(Nc3cnn(CC(=O)O)c3)nc(N[C@H]3CC[C@H](N4CCOCC4)CC3)c12 [WX011] | 357 |  |  |
| Cc1nsc2nc(Nc3cnn(C4CCOCC4)c3)nc(N(C)[C@H]3CC[C@H](N4CCOCC4)CC3)c12 [WX013] | 60.1 |  |  |
| Cc1nsc2nc(Nc3cnn(C[C@H]4COCCO4)c3)nc(N[C@H]3CC[C@H](N4CCOCC4)CC3)c12 [WX014] | 30.3 | 663 |  |
| Cc1nsc2nc(Nc3cnn(C[C@@H]4COCCO4)c3)nc(N[C@H]3CC[C@H](N4CCOCC4)CC3)c12 [WX015] | 20.5 | 952 |  |
| Cc1nsc2nc(Nc3cnn(C4CCOCC4)c3)nc(N[C@H]3CC[C@H](N4CCNCC4)CC3)c12 [WX025] | 23.6 |  |  |
| CC(=O)N1CCN([C@H]2CC[C@H](Nc3nc(Nc4cnn(C5CCOCC5)c4)nc4snc(C)c34)CC2)CC1 [WX027] | 3.3 | 639 |  |
| CCOC(=O)N1CCN([C@H]2CC[C@H](Nc3nc(Nc4cnn(C5CCOCC5)c4)nc4snc(C)c34)CC2)CC1 [WX028] | 1.6 | 234 |  |
| Cc1nsc2nc(Nc3cnn(C4CCOCC4)c3)nc(N[C@H]3CC[C@H](N4CCN(C(C)C)CC4)CC3)c12 [WX029] | 3.8 |  |  |
| Cc1nsc2nc(Nc3cnn(C4CCOCC4)c3)nc(N[C@H]3CC[C@H](N4CCN(C)CC4)CC3)c12 [WX030] | 7.5 | 308 |  |
| Cc1nsc2nc(Nc3cnn(C4CCOCC4)c3)nc(N[C@H]3CC[C@H](N4CCN(C5CC5)CC4)CC3)c12 [WX031] | 2.4 | 317 |  |
| COC(=O)N1CCN([C@H]2CC[C@H](Nc3nc(Nc4cnn(C5CCOC5)c4)nc4snc(C)c34)CC2)CC1 (stereo partly shown) [WX032] | 15.2 |  |  |
| COC(=O)N1CCN([C@H]2CC[C@H](Nc3nc(Nc4cnn([C@@H]5CCOC5)c4)nc4snc(C)c34)CC2)CC1 [WX033] | 12.8 |  |  |
| COC(=O)N1CCN([C@H]2CC[C@H](Nc3nc(Nc4cnn([C@H]5CCOC5)c4)nc4snc(C)c34)CC2)CC1 [WX034] | 12.8 |  |  |
| COC(=O)N1CCN([C@H]2CC[C@H](Nc3nc(Nc4cnn(C)c4)nc4snc(C)c34)CC2)CC1 [WX035] | 10.7 |  |  |
| Cc1nsc2nc(Nc3cnn(C4CCOCC4)c3)nc(NC3CCC(N4CCCNCC4)CC3)c12 (stereo not shown) [WX036] | 5.5 | 4160 |  |
| Cc1nsc2nc(Nc3cnn(C4CCOCC4)c3)nc(NC3CCC(N4CCCN(C)CC4)CC3)c12 (stereo not shown) [WX037] | 9.2 | 296 |  |

| SMILES | IC50 (human IRAK4) [nM] | IC50 (THP-1 cells; Homo sapiens, THP-1, 18 h) [nM] | further results |
| --- | --- | --- | --- |
| CC(=O)N1CCCN(C2CCC(Nc3nc(Nc4cnn(C5CCOCC5)c4)nc4snc(C)c34)CC2)CC1 (stereo not shown) [WX038] | 1.3 | 216 |  |
| COC(=O)N1CCCN(C2CCC(Nc3nc(Nc4cnn(C5CCOCC5)c4)nc4snc(C)c34)CC2)CC1 (stereo not shown) [WX039] | 7.9 | 139 |  |
| Cc1nsc2nc(Nc3cnn(C4CCOCC4)c3)nc(N[C@H]3CC[C@H](N4CC5CC(C4)N5)CC3)c12 [WX040] | 30 |  |  |
| Cc1nsc2nc(Nc3cnn(C4CCOCC4)c3)nc(N[C@H]3CC[C@H](N4CC5CC(C4)N5C)CC3)c12 [WX041] | 21.4 |  |  |
| CC(=O)N1C2CC1CN([C@H]1CC[C@H](Nc3nc(Nc4cnn(C5CCOCC5)c4)nc4snc(C)c34)CC1)C2 [WX043] | 12.2 |  |  |
| Cc1nsc2nc(Nc3cnn(C4CCOCC4)c3)nc(N[C@H]3CC[C@H](N4C[C@H]5C[C@@H]4CN5C)CC3)c12 [WX045] | 278 |  |  |
| COC(=O)N1C[C@H]2C[C@@H]1CN2[C@H]1CC[C@H](Nc2nc(Nc3cnn(C4CCOCC4)c3)nc3snc(C)c23)CC1 [WX047] | 29.6 | 889 |  |
| Cc1nsc2nc(Nc3cnn(C4CCOCC4)c3)nc(N[C@H]3CC[C@H](N4CCNC(=O)C4)CC3)c12 [WX048] | 460 |  |  |
| Cc1nsc2nc(Nc3cnn(C4CCOCC4)c3)nc(N[C@H]3CC[C@H](N4CCNC(C)C4)CC3)c12 (stereo partly shown) [WX049] | 11.2 | 516 |  |
| Cc1nsc2nc(Nc3cnn(C4CCOCC4)c3)nc(N[C@H]3CC[C@H](N4CCNC5(CC5)C4)CC3)c12 [WX050] | 13.4 | 689 |  |
| Cc1nsc2nc(Nc3cnn(C4CCOCC4)c3)nc(N[C@H]3CC[C@H](N4CCNCC4C)CC3)c12 (stereo partly shown) [WX051] | 13.7 |  |  |
| Cc1nsc2nc(Nc3cnn(C4CCOCC4)c3)nc(N[C@H]3CC[C@H](N4CCC(O)CC4)CC3)c12 [WX052] | 1.8 |  |  |
| Cc1nsc2nc(Nc3cnn(C4CCOCC4)c3)nc(N[C@H]3CC[C@H](N4CCOCC4=O)CC3)c12 [WX054] | 363 |  |  |
| N#CCc1nsc2nc(Nc3cnn(C4CCOCC4)c3)nc(N[C@H]3CC[C@H](N4CCOCC4)CC3)c12 [WX055] | 11.7 | 165 |  |
| O=C(O)Cc1nsc2nc(Nc3cnn(C4CCOCC4)c3)nc(N[C@H]3CC[C@H](N4CCOCC4)CC3)c12 [WX056] | 17 |  |  |
| Cc1nsc2nc(Nc3cnn(C4CCOCC4)c3)nc(N[C@H]3CC[C@H](N4CCC(C(=O)O)CC4)CC3)c12 [WX057] | 5 |  |  |
| Cc1nsc2nc(Nc3cnn(C4CCOCC4)c3)nc(N[C@H]3CC[C@H](N4CCC(N(C)C)CC4)CC3)c12 [WX058] | 2.1 |  |  |
| COC(=O)N1CCN([C@H]2CC[C@H](Nc3nc(Nc4cnn(C5CCC(F)(F)CC5)c4)nc4snc(C)c34)CC2)CC1 [WX059] | 1.1 |  |  |
| Cc1nsc2nc(Nc3cnn(C4CCOCC4)c3)nc(N[C@H]3CC[C@H](N4CC(O)C4)CC3)c12 [WX060] | 7.3 |  |  |
| NC(=O)C[C@H]1CCc2sc3ncnc(O[C@H]4CC[C@H](N5CCOCC5)CC4)c3c21 [WXR2, ND-2110, reference compound] |  |  | Vd ([1]; Intravenous, 3 mg/kg, read-out: Apparent volume of distribution Vdss): 1.6 L/kg; AUC(0-t) ([1]; Intravenous, 3 mg/kg): 3.68 µM·h; clearance ([1]; Intravenous, 3 mg/kg, read-out: Clearance CL): 33.2 mL/min/kg; half-life ([1]; Intravenous, 3 mg/kg, read-out: Half life T1/2 (converted)): 78 min; AUC(0-t) ([1]; Oral, 10 mg/kg): 2.13 µM·h; bioavailability ([1]; Oral, 10 mg/kg, read-out: Bioavailability F): 18%; Cmax ([1]; Oral, 10 mg/kg, read-out: Peak concentration Cmax): 893 nM; Tmax ([1]; Oral, 10 mg/kg, read-out: Time to peak Tmax): 36 min |

From patent publication US11459337B2, “Isothiazolo[5,4-D]pyrimidine compound as IRAK4 inhibitor” (priority 2018, dated 2022)
